The source of these data is ChEMBL document CHEMBL1909608, “Actinopolysporins A-C and tubercidin as a Pdcd4 stabilizer from the halophilic actinomycete Actinopolyspora erythraea YIM 90600” (J Nat Prod, 2011).

Activity calls are given as the source filed them. No cut-off for these calls is given here. A value given as a limit tells only on which side of the number the result lay.

Assay type in all cases: cell-based
Data set [1] concerns the target T1, Programmed cell death protein 4 (Homo sapiens) (UniProt Q53EL6).
T1 sequence (whole entry): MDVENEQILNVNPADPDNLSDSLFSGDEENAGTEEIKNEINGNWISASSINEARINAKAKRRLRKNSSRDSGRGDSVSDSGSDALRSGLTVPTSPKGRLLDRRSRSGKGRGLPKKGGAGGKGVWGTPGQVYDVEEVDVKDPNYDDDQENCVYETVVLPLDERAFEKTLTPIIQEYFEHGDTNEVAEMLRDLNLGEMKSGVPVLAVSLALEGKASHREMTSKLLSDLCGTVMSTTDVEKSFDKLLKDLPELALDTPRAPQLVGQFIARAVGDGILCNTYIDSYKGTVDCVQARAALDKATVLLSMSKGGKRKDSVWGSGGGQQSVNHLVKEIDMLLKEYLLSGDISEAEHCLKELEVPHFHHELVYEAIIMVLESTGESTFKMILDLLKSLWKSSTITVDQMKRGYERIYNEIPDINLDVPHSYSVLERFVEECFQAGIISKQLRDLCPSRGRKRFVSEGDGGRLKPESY
Kind of data set: Stabilization of Pdcd4 expressed in human HEK293 cells assessed as inhibition of TPA-induced degradation by luciferase reporter assay. On the technique in general: Reporter assays use an easily measured gene product as a stand-in for the process of interest.

Data set [2] has as its target T1, Programmed cell death protein 4 (Homo sapiens). Kind of data set: Stabilization of Pdcd4 expressed in TPA-stimulated human HEK293 cells at 2.5 uM by luciferase reporter assay.
For data set [3], the system named is HEK293. The data set is described as follows: Cytotoxicity against human HEK293 cells.

`COC(=O)/C(C)=C/C(C)CC(C)CC(C)(O)CC(C)O` (stereo not given): the inhibition result in data set [1] was “inactive”.
On to `Nc1ncnc2c1ccn2[C@@H]1O[C@H](CO)[C@@H](O)[C@H]1O` [TUBERCIDIN], for which the max activation in data set [2] was found to be 94.2%. In data set [3], this molecule gave an Activity of over 2.5 µM.
In the case of `COC(=O)/C(C)=C/C(C)CC(C)CC(C)(O)C(C)O` (stereo not given), the inhibition result in data set [1] was “inactive”.
Still for that read-out and setting: then `CCC(=O)/C(C)=C/C(C)CC(C)CC(C)(O)CC` (stereo not given), with “inactive”.
